From US20060183902A1, “Dihydroindolyl methanones as alpha 1a/1d adrenoreceptor modulators for the treatment of benign prostatic hypertrophy and lower urinary tract symptoms” (priority 2005, published 2006)
Several values for one entry are separate records, joined by “and”; a condition that tells them apart may be missing. Equal entries are not always repeated. Where two headings read alike, the source gives them in different places.

Tests used:
α1a-AR = target: T1, α1a-AR (Homo sapiens, UniProt P35348); test: α1-Adrenergic receptor radio-ligand (125I-HEAT) binding assay, α1a subtype; details: COS-7 cell membranes transfected with α1a-AR, 125I-HEAT 50 pM
T1 construct: expressed in transfected cells; host or cells: COS-7
T1 sequence (P35348 1-466): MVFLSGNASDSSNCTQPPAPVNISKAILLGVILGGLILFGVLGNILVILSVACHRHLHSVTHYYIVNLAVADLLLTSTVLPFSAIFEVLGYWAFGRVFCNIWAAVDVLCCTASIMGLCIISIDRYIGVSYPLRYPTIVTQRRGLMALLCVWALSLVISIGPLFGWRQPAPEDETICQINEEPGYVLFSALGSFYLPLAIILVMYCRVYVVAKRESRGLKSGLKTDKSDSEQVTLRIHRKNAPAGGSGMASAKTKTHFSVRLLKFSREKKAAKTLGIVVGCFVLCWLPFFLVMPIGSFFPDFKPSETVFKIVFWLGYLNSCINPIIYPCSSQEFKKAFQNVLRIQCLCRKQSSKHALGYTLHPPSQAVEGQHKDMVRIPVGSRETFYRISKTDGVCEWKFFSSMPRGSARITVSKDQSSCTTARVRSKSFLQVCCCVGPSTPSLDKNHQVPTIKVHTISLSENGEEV
Method: (§1) Membranes were prepared from COS-7 cells (African Green monkey kidney SV40-transformed cells) that had been transfected with one of the three α1-AR subtypes by the following method:
(§2) COS cells from ten 100 mm tissue culture plates were scraped into a 5 mL volume of TE (a mixture of 50 mM tris(hydroxymethyl)aminomethane hydrochloride (Tris-HCl) and 5 mM ethylenediaminetetraacetic acid (EDTA) at pH 7.4). The cell suspension was disrupted with a Brinkman Polytron (at a setting of 8) for 10 sec. The disrupted cells were centrifuged at 1000×g for 10 min at 4° C. Supernatants were centrifuged at 34,500×g for 20 min at 4° C. The membrane pellets were suspended in a 2 mL volume of TNE (a mixture of 50 mM Tris-HCl, 5 mM EDTA and 150 mM NaCl at pH7.4). An aliquot of the membrane suspension was stored at −70° C. until use. The protein concentration was determined using a BioRad “DC” protein assay kit following membrane solubilization with Triton X-100.
(§3) Triplicate determinations of radio-ligand binding in the presence of increasing concentrations of testing compound were made. The reagents were added to 96-well polypropylene plate wells. Each assay well contained 140 μL TNE, 25 μL ^125I-2-(β-4-hydroxyplenyl)ethylaminomethyltetralone (^125I-HEAT) (specific activity 2200 Ci/mmol, Dupont-New England Nuclear, 50 pM final), 10 μL testing compound dissolved in dimethyl sulfoxide (DMSO) (1 pM to 10 μM in half-log increments, final), and 25 μL appropriate α1-AR membrane subtype suspension in TNE (0.5 ng/μL for the α1a and α1b subtypes and 13 ng/μL for the α1d subtype). The plate was incubated at rt for 1 hr. The contents of the wells were filtered through a glass filter (type C) (GF/C) membrane Unifilter plate (Packard Instruments) using the Packard Filtermate cell harvester. The filter plates were dried in a vacuum oven for 30 min at 40° C. 25 μL Microscint 20 liquid scintillation fluid (Packard Instuments) was added to each well. The radioactive content was analyzed in the TopCount microplate scintillation counter (Packard Instruments).
(§4) The Ki values (in nM) shown in Table 1 were determined using GraphPad Prism software.

α1b-AR = target: T2, α1b-AR (Homo sapiens, UniProt P35368); test: α1-Adrenergic receptor radio-ligand (125I-HEAT) binding assay, α1b subtype; details: COS-7 cell membranes transfected with α1b-AR, 125I-HEAT 50 pM
T2 construct: expressed in transfected cells; host or cells: COS-7
T2 sequence (P35368 1-520): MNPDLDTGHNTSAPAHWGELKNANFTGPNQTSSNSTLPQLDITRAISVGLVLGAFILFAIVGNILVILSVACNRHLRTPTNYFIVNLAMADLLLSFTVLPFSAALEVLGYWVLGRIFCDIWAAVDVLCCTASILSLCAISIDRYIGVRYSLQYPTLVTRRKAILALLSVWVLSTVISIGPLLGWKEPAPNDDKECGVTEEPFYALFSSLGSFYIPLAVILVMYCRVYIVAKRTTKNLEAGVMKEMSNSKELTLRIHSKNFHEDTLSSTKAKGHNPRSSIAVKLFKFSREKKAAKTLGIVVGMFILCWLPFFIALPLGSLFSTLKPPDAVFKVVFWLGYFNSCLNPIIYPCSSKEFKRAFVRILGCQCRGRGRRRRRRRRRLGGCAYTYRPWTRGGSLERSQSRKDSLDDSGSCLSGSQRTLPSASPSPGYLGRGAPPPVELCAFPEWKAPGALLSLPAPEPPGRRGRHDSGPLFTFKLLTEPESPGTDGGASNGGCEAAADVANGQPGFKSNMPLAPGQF
Method: as §1, §2, §3, §4

α1d-AR = target: T3, α1d-AR (Homo sapiens, UniProt P25100); test: α1-Adrenergic receptor radio-ligand (125I-HEAT) binding assay, α1d subtype; details: COS-7 cell membranes transfected with α1d-AR, 125I-HEAT 50 pM
T3 construct: expressed in transfected cells; host or cells: COS-7
T3 sequence (P25100 1-572): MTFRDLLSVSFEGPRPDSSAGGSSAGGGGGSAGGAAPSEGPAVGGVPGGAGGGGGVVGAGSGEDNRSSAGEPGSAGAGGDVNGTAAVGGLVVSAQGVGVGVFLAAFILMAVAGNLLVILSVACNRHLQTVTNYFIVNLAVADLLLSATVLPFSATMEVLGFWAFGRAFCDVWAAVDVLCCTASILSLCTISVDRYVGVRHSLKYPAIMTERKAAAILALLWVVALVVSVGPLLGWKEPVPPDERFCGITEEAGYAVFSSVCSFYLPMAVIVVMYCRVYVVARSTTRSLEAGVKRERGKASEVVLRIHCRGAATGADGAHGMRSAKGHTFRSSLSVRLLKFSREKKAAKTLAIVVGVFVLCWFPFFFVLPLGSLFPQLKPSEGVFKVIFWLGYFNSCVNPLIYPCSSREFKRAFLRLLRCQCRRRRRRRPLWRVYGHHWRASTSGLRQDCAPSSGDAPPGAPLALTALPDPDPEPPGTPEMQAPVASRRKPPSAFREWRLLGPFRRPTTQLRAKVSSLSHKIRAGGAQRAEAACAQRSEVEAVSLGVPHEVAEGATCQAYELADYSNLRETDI
Method: as §1, §2, §3, §4

[1] = read-out: Receptor Binding, Ki α1a-AR
[2] = read-out: Receptor Binding, Ki α1b-AR
[3] = read-out: Receptor Binding, Ki α1d-AR

| Structure (SMILES) | Ki (α1a-AR; [1]) [nM] | Ki (α1b-AR; [2]) [nM] | Ki (α1d-AR; [3]) | Ki (α1a-AR; Receptor Binding, Ki α1a-AR) [nM] | Ki (α1b-AR; Receptor Binding, Ki α1b-AR) [nM] | Ki (α1d-AR; Receptor Binding, Ki α1d-AR) [nM] |
| --- | --- | --- | --- | --- | --- | --- |
| CC(C)Oc1ccccc1N1CCN(Cc2cccc(C(=O)N3CCc4ccc(N)cc43)c2)CC1 [Cpd 5, (6-amino-2,3-dihydro-indol-1-yl)-{3-[4-(2-isopropoxy-phenyl)-piperazin-1-ylmethyl]-phenyl}-methanone] | 1.9 | 143 | 2 nM | – | – | – |
| COc1cccc(OC)c1CNc1ccc2c(c1)N(C(=O)c1cccc(CN3CCN(c4ccccc4OC(C)C)CC3)c1)CC2 [Cpd 7, [6-(2,6-dimethoxy-benzylamino)-2,3-dihydro-indol-1-yl]-{3-[4-(2-isopropoxy-phenyl)-piperazin-1-ylmethyl]-phenyl}-methanone] | 11 | 684 | 16 nM | – | – | – |
| CCCCCCCCc1ccc(CNc2ccc3c(c2)N(C(=O)c2cccc(CN4CCN(c5ccccc5OC(C)C)CC4)c2)CC3)cc1 [Cpd 10, {3-[4-(2-isopropoxy-phenyl)-piperazin-1-ylmethyl]-phenyl}-[6-(4-octyl-benzylamino)-2,3-dihydro-indol-1-yl]-methanone] | 836 | – | 250 nM | – | – | – |
| Cc1ccc(OC(=O)Nc2ccc3c(c2)N(C(=O)c2cccc(CN4CCN(c5ccccc5OC(C)C)CC4)c2)CC3)cc1 [Cpd 12, (1-{3-[4-(2-isopropoxy-phenyl)-piperazin-1-ylmethyl]-benzoyl}-2,3-dihydro-1H-indol-6-yl)-carbamic acid p-tolyl ester] | – | – | – | 3.3 | 495 | 5.7 |
| CC(C)Oc1ccccc1N1CCN(Cc2cccc(C(=O)N3CCc4ccc(NC(=S)Nc5ccccc5)cc43)c2)CC1 [Cpd 13, 1-(1-{3-[4-(2-isopropoxy-phenyl)-piperazin-1-ylmethyl]-benzoyl}-2,3-dihydro-1H-indol-6-yl)-3-phenyl-thiourea] | 33 | 305 | 4 nM and 3.11 nM | – | – | – |

Second part, led by results:

| Ki (α1a-AR; [1]) [nM] | Ki (α1b-AR; [2]) [nM] | Ki (α1d-AR; [3]) | Structure (SMILES) | Ki (α1a-AR; Receptor Binding, Ki α1a-AR) [nM] | Ki (α1b-AR; Receptor Binding, Ki α1b-AR) [nM] | Ki (α1d-AR; Receptor Binding, Ki α1d-AR) [nM] |
| --- | --- | --- | --- | --- | --- | --- |
| 22 | – | 4 nM | CC(C)Oc1ccccc1N1CCN(Cc2cccc(C(=O)N3CCc4cc(NC(=O)Nc5ccc(Cl)cc5Cl)ccc43)c2)CC1 [Cpd 14, 1-(2,4-dichloro-phenyl)-3-(1-{3-[4-(2-isopropoxy-phenyl)-piperazin-1-ylmethyl]-benzoyl}-2,3-dihydro-1H-indol-5-yl)-urea] | – | – | – |
| 1 | 91 | 700 nM | CC(=O)Nc1ccc(S(=O)(=O)Nc2ccc3c(c2)N(C(=O)c2cccc(CN4CCN(c5ccccc5OC(C)C)CC4)c2)CC3)cc1 [Cpd 15, N-[4-(1-{3-[4-(2-isopropoxy-phenyl)-piperazin-1-ylmethyl]-benzoyl}-2,3-dihydro-1H-indol-6-ylsulfamoyl)-phenyl]-acetamide] | – | – | – |
| 20.8 | 847 | – | COc1ccc(OC)c2c1CC(Nc1ccc3c(c1)N(C(=O)c1cccc(CN4CCN(c5ccccc5OC(C)C)CC4)c1)CC3)C2 [Cpd 29, [6-(4,7-dimethoxy-indan-2-ylamino)-2,3-dihydro-indol-1-yl]-{3-[4-(2-isopropoxy-phenyl)-piperazin-1-ylmethyl]-phenyl}-methanone] | – | – | – |
| 1.3 | – | 4.2 nM | CC(C)Oc1ccccc1N1CCN(Cc2cccc(C(=O)N3CCc4ccc(NCc5ccccc5F)cc43)c2)CC1 [Cpd 44, [6-(2-fluoro-benzylamino)-2,3-dihydro-indol-1-yl]-{3-[4-(2-isopropoxy-phenyl)-piperazin-1-ylmethyl]-phenyl}-methanone] | – | – | – |
| 67.5 | – | – | CC(C)(C)OC(=O)N1CCN(Cc2cccc(C(=O)N3CCc4ccccc43)c2)CC1 [Cpd 54, 4-[3-(2,3-dihydro-indole-1-carbonyl)-benzyl]-piperazine-1-carboxylic acid tert-butyl ester] | – | – | – |
| – | – | 0.5 nM and 1.9 nM | O=C(c1cccc(CN2CCN(c3ccccc3OCC(F)(F)F)CC2)c1)N1CCc2ccccc21 [Cpd 63, (2,3-dihydro-indol-1-yl)-(3-{4-[2-(2,2,2-trifluoro-ethoxy)-phenyl]-piperazin-1-ylmethyl}-phenyl)-methanone] | – | – | – |
